Results taken from patent US20230248670A1, “APPLICATION OF PREPARATION FOR INHIBITING CAMK2G EXPRESSION IN PREPARATION OF MEDICINE FOR TREATING PSORIASIS” (priority 2022, published 2023).

How the values were obtained:
[1] = test system: IMQ-induced psoriasis mice; experiment: IMQ-induced psoriasis mouse model with subcutaneous injection of NE, SAL or ICI; format: in vivo; settings: for IMQ-induced psoriasis-like phenotype (dorsal skin thickness, erythema, scaling) / proportion of IL-17A+ γδ T cells (γδ T-17 cells) in mouse skin: subcutaneous injection; for IMQ-induced psoriasis-like phenotype (dorsal skin thickness, erythema, scaling): IMQ-induced mice, vs control group; for proportion of IL-17A+ γδ T cells (γδ T-17 cells) in mouse skin: IMQ-induced mouse skin, flow cytometry; for activation of p38 in IMQ-induced skin: SAL or ICI treatment, mouse skin
Method: In the embodiment of the disclosure, establishment steps of IMQ-induced Camk2g^-/- psoriasis mouse model include steps as follows. 7-week-old wild type mice (WT) (n = 5) or Camk2g^-/- mice (n = 5) are taken to shave back hair, and the exposed skin area is 2 centimeters (cm) × 2 cm, […] (mg) of IMQ cream or control agent Vaseline (VAS) are evenly applied to the exposed skin of mice for 4 consecutive days, psoriasis area severity index (PASI) score is performed every day, and the mice are sacrificed on the 5th day to take the skin, spleen and blood for testing.
In the embodiment of the disclosure, the skin tissue is fixed with 10% formalin, embedded in paraffin, cut into 4 micrometers (µm) sections for hematoxylin and eosin (H&E) staining.
In the embodiment of the disclosure, the inflammation scoring method of the mouse model is an objective scoring system developed on the basis of clinical PASI score. Scores of erythema, scaling and thickening ranged from 0 to 4:0: none; 1: mild, 2: moderate, 3: obvious, and 4: very significant. The degree of erythema is scored using a scoring scaling based on erythema intensity. A cumulative score (i.e., erythema + scaling + thickening) can be used as an indicator of the severity of inflammation (the cumulative score is in a range of 0-12).
In the embodiment of the disclosure, separation steps of skin immunocytes include steps as follows. the skin is fully chopped and then digested in digestive enzymes at 37° C. and 225 revolutions per minute (rpm) for 1.5 hours to thereby obtain an initial digestion solution. The digestive enzymes are formulated as follows: 1.2 grams (g) bovine serum albumin (BSA) (Biofoxx, 4240GR100), 0.12 g type I collagenase (Sigma, C0130-5G), 0.06 g type IV collagenase (Worthington, LS004189) and 0.06 g hyaluronidase (Sigma, H3506) -5G) are dissolved in 30 milliliters (mL) dulbecco’s modified eagle medium (DMEM) (HyClone, SH30022.01). 150 microliters (µL) of 1 microgram per milliliter (mg/mL) deoxyribonuclease (DNase) (Yuanye, S10073) is added in the initial digestion solution and the digestion is continued for 30 minutes to obtain a first cell suspension. After the digestion, the first cell suspension is filtered through a 70-µm filter. The filtered first cell suspension is centrifuged at 4° C. and 2000 rpm for 8 minutes, and first cell particles are collected after removing a first supernatant. The first cell particles are suspended in 6 mL of 40% lymphocyte isolation solution (5.4 mL Percoll (GE Healthcare, 17-0891-09) +520 µL Hank’s Solution (Beyotime, C0219) +44 µL 2×Hepes Buffer (Solarbio, H1080-100) +[…] phosphate-buffered saline (PBS)) of a centrifuge tube. Then, 6 mL of 80% lymphocyte isolation solution (5.4 mL Percoll+520 µL Hank’s Solution+44 µL 2×Hepes Buffer+1.491 mL PBS) is slowly added to the tube wall to obtain a first mixed solution, and the first mixed solution is clearly separated into two layers. The first mixed solution is centrifuged at 4° C. and 2000 rpm for 20 minutes, and the centrifugal lifting force is kept to a minimum. The liquid in the centrifuge tube after centrifugation can be divided into four layers. From top to bottom of the centrifuge tube, there are 40% lymphocyte isolation solution, lymphocytes, 80% lymphocyte isolation solution and cell fragments. Lymphocytes are carefully transferred into a new centrifuge tube and thoroughly washed with 10 mL PBS to obtain a second mixed solution. The second mixed solution is centrifuged at 4° C. and 2000 rpm for 8 minutes to obtain a second cell suspension, and second cell particles are collected after removing a second supernatant. Then, 1 µL of each cell membrane surface antibody is added to 50 µL of PBS, mixed with the second cell particles, and incubated at room temperature for 30 minutes in the dark. […]

[2] = test system: IMQ-induced psoriasis mice; experiment: as above; format: in vivo; settings: after injection of NE
Jurkat T cells = experiment: MAPK (p38, ERK, JNK) activation in PMA/ionomycin activated Jurkat T cells; format: cell-based, human; settings: Jurkat T cells activated by PMA/ionomycin for 2 hours, treatment for 4 hours
Excerpt: This is consistent with the existing literature that p38 phosphorylation promotes the proliferation of Th17 cells in autoimmune arthritis. P38 MAPK signaling pathway plays a role in the activation and differentiation of T cells in the peripheral blood immune system.

Jurkat cells = experiment: Proinflammatory cytokine production in PMA/ionomycin co-stimulated Jurkat cells; format: cell-based, human; settings: co-stimulation with PMA and ionomycin
Excerpt: In the embodiments of the disclosure, “Phorbol 12-myristate 13-acetate (PMA)” and “ionomycin (Ion)” are used to activate Jurkat cells, and only activated Jurkat cells can highly express inflammatory factors.
In the embodiment of the disclosure, in order to in order to study how ADRB2 regulates the inflammatory response of γδ T cells, Jurkat cells (a kind of immortal human T lymphocytes) are stimulated with ADRB2 agonist SAL and antagonist ICI 118551 respectively.

IMQ-induced mice = settings: intraperitoneal injection; cited from earlier work
[3] = test system: skin sympathetic nerves of IMQ-induced mice; experiment: Local skin sympathectomy by intradermal 6-OHDA before IMQ treatment; format: in vivo, mouse
Method: In an embodiment of the disclosure, in order to observe the effect of local sympathectomy on psoriasis mice, mice are injected with 6-OHDA intradermally before IMQ treatment (FIG. 25).

SH-SY5Y cells = experiment: 6-OHDA induced SH-SY5Y cell injury (qPCR, western blot); format: cell-based, human
Excerpt: In an embodiment of the disclosure, to further study whether CAMK2γ directly affects the expression of TH in sympathetic nerves, RNA interference (RNAi) method is used to knock down CAMK2G in human neuroblastoma cell (SH-SY5Y). SH-SY5Y is a poorly differentiated tumor cell with high similarity in morphology, physiology and biochemical function to dopaminergic neurons in real-time in vivo, and can constitutively express TH.

[4] = test system: γδ T cell deficient-mice (Tcrd^-/-); experiment: SAL subcutaneous injection in γδ T cell deficient-mice (Tcrd-/-); format: in vivo, mouse
Excerpt: SAL has no effect on the ability of αβ T cells to produce IL-17 (FIG. 50). Combined with the previous results, NE in the skin mainly derives from the skin sympathetic nerves and mediates the release of IL-17 from γδ T cells instead of αβ T cells through the NE-ADRB2 signaling pathway.

[5] = test system: PMA-activated HL-60 cells; experiment: NETs protein release in PMA-activated HL-60 cells; format: cell-based
Excerpt: The existing literature discloses that although T cells producing IL-17 have long been the mainstream of psoriasis immunology research, neutrophils, as the largest number of cells in the innate immune system, have attracted much attention in the occurrence and development of psoriasis. Activated neutrophils produce enhanced respiratory burst, accompanied by the production of reactive oxygen species (ROS), ultimately leading to the development of NETosis. NETosis is a form of neutrophil death different from apoptosis and necrosis. NETosis is accompanied by the formation of NETs. NETs release proteases such as myeloperoxidase (MPO), neutrophil elastase (NE) and peptidyl arginine deiminase 4 (PAD4), which are involved in the hydrolysis and activation of inflammatory mediators and the formation of NETs of psoriasis autoantigens. HL60 is a bone marrow cell line with the potential to differentiate into neutrophils stimulated by dimethyl sulfoxide (DMSO). CAMK2γ is the member of CAMK family with the highest expression level and activity in HL-60 cells.
In the embodiment of the disclosure, in order to study whether CAMK2γ is involved in the formation of NETs in activated neutrophils, two kinds of CaMKII inhibitors, CaMKII-IN1 and KN93, are used.

[6] = intradermal 6-OHDA, sympathetic denervated skin

With `NC[C@H](O)c1ccc(O)c(O)c1` [NE, norepinephrine] the “IL-17A+ γδ T cells in CAMK2G-deleted mice” value ([1]; NE administration, IMQ-induced Camk2g-/- mice) was “counteracts the decrease of IL-17A+ γδ T cells caused by CAMK2G deletion”, the “p38 phosphorylation in skin of Camk2g-/- mice” value ([1]; NE injection, compared to IMQ-treated WT mice) was “increases and restores p38 phosphorylation” and the “IMQ-induced psoriasis-like phenotype (dorsal skin thickness, erythema, scaling)” value [1] was “aggravates the IMQ-induced psoriasis-like phenotype”. The “proportion of IL-17A+ γδ T cells (γδ T-17 cells) in mouse skin” value (shortened to “proportion of IL-17A+ γδ T cells”) [1] was “increases a proportion of IL-17A+ γδ T cells in mouse skin” and the “difference in skin thickness between WT and Camk2g-/- mice” value [2] was “disappeared”.

For `Cc1ccc(OCC(O)C(C)NC(C)C)c2c1CCC2` (stereo not drawn) [ICI, ICI 118551], the “activation of ERK and JNK” value (Jurkat T cells) was “does not affect the activation”, the p38 phosphorylation (Jurkat T cells) was “inhibited” and the “activation of p38 in IMQ-induced skin” value [1] was “showed inhibitory effect”. For the same molecule, the “IMQ-induced psoriasis-like phenotype (dorsal skin thickness, erythema, scaling)” value [1] was “psoriasis phenotype of mice injected with ICI is reduced”, the “proportion of IL-17A+ γδ T cells” value [1] was “reduces a proportion of skin γδ T-17 cells” and the “production of T-cell proinflammatory cytokines IL-17A, TNF-α and IL-22” value (Jurkat cells) was “reduces the production of the T-cell proinflammatory cytokines”.

For `NCCc1cc(O)c(O)cc1O` [6-OHDA, 6-hydroxydopamine], the IMQ-induced ear swelling (IMQ-induced mice) is given as “can reduce IMQ-induced ear swelling”, the “production of IL-17” value (IMQ-induced mice) is given as “does not affect the production of IL-17” and the “TH and pTH in skin” value ([3]; intradermal 6-OHDA before IMQ, immunofluorescence and western blot) is given as “significant reduction of TH and pTH”. The IMQ-induced psoriasis-like phenotype ([3]; intradermal 6-OHDA, skin sympathetic denervation) was “reduces IMQ-induced psoriasis-like phenotype in mice”, the “IL-17A+ γδ T cells in skin” value [3, 6] was “IL-17A+ γδ T cells are reduced” and the NE in skin [3, 6] was “reduction of NE”. The CAMK2G expression (SH-SY5Y cells; qPCR) was “no significant effect on CAMK2G expression”, the “intracellular TH transcription level” value (SH-SY5Y cells; qPCR) was “decrease of intracellular TH transcription level” and the “phosphorylation levels of other members of the CaMKII family” value (SH-SY5Y cells; western blot) was “may lead to increased phosphorylation levels of other members of the CaMKII family”. For the same molecule, the “total protein level and pTH level of CAMK2γ” value (SH-SY5Y cells; western blot) was “reduces the total protein level and pTH level of CAMK2γ”.

For `OCc1cc(C(O)CNCCCCCCOCCCCc2ccccc2)ccc1O` (stereo not drawn) [SAL, salmeterol xinafoate], the p38 phosphorylation (Jurkat T cells) was “significantly increased”, the “activation of p38 in IMQ-induced skin” value [1] was “enhanced the activation of p38” and the “IMQ-induced psoriasis-like phenotype (dorsal skin thickness, erythema, scaling)” value [1] was “psoriasis phenotype of mice injected with SAL increased”. The “proportion of IL-17A+ γδ T cells” value [1] was “promotes IL-17A production by γδ T cells”, the “ability of αβ T cells to produce IL-17” value [4] was “no effect” and the “psoriasis phenotype and inflammatory infiltration” value [4] was “promotion of psoriasis phenotype and inflammatory infiltration by SAL is counteracted by the lack of γδ T cells”. The “production of T-cell proinflammatory cytokines IL-17A, TNF-α and IL-22” value (Jurkat cells) was “increase the production of T-cell proinflammatory cytokines IL-17A, TNF-α and IL-22”.

With `COc1ccc(S(=O)(=O)N(CCO)c2ccccc2CN(C)C/C=C/c2ccc(Cl)cc2)cc1` [KN93] the “release of MPO, elastase and PAD4” value [5] was “inhibits the release of MPO, elastase and PAD4”.

In the case of `Cc1c(Cl)cccc1S(=O)(=O)Nc1nc(NCCc2ccccc2)nc2c1CN(Cc1ccccc1)CC2` [CaMKII-IN1], the “release of MPO, elastase and PAD4” value [5] is reported as “inhibits the release of MPO, elastase and PAD4”.

With `CC(C)Cn1cnc2c(N)nc3ccccc3c21` [IMQ, imiquimod] the “p38 phosphorylation in mouse skin” value ([1]; IMQ treatment) was “p38 phosphorylation is activated by IMQ”, the “proportion of β2-AR+ T cells in mouse skin” value ([1]; IMQ treatment) was “increases a proportion of β2-AR+ T cells in mouse skin” and the “TH phosphorylation in mouse skin” value ([1]; IMQ treatment, western blot) was “significant upregulation of TH phosphorylation”.
